Experimental data reported in ChEMBL document CHEMBL1158870, “Antitumor agents. 180. Chemical Studies and cytotoxic evaluation of cumingianosides and cumindysoside A, antileukemic triterpene glucosides with a 14,18-cycloapotirucallane skeleton” (1997).

Legend:
[1] = tested on: CCRF-CEM; experiment: Cytotoxicity against human CCRF-CEM cells by SRB assay; format: functional
[2] = Cytotoxicity against human HL60(TB) cells by SRB assay; format: functional, HL-60(TB); details: HL-60
[3] = tested on: K562; experiment: Cytotoxicity against human K562 cells by SRB assay; format: functional
[4] = tested on: MOLT-4; experiment: Cytotoxicity against human MOLT4 cells by SRB assay; format: functional
[5] = tested on: RPMI-8226; experiment: Cytotoxicity against human RPMI8226 cells by SRB assay; format: functional
[6] = tested on: SR; experiment: Cytotoxicity against human SR cells by SRB assay; format: functional
[7] = tested on: A549; experiment: Cytotoxicity against human A549 cells by SRB assay; format: functional
[8] = tested on: EKVX; experiment: Cytotoxicity against human EKVX cells by SRB assay; format: functional
[9] = tested on: HOP-62; experiment: Cytotoxicity against human HOP62 cells by SRB assay; format: functional
[10] = tested on: HOP-92; experiment: Cytotoxicity against human HOP92 cells by SRB assay; format: functional
[11] = tested on: NCI-H226; experiment: Cytotoxicity against human NCI-H226 cells by SRB assay; format: functional
[12] = tested on: NCI-H23; experiment: Cytotoxicity against human NCI-H23 cells by SRB assay; format: functional
[13] = tested on: NCI-H322M; experiment: Cytotoxicity against human NCI-H322M cells by SRB assay; format: functional
[14] = tested on: NCI-H460; experiment: Cytotoxicity against human NCI-H460 cells by SRB assay; format: functional
[15] = tested on: NCI-H522; experiment: Cytotoxicity against human NCI-H522 cells by SRB assay; format: functional
[16] = tested on: COLO 205; experiment: Cytotoxicity against human COLO205 cells by SRB assay; format: functional
[17] = tested on: HCC 2998; experiment: Cytotoxicity against human HCC2998 cells by SRB assay; format: functional
[18] = tested on: HCT-116; experiment: Cytotoxicity against human HCT116 cells by SRB assay; format: functional
[19] = tested on: HCT-15; experiment: Cytotoxicity against human HCT15 cells by SRB assay; format: functional
[20] = tested on: HT-29; experiment: Cytotoxicity against human HT29 cells by SRB assay; format: functional
[21] = tested on: KM12; experiment: Cytotoxicity against human KM12 cells by SRB assay; format: functional
[22] = tested on: SW-620; experiment: Cytotoxicity against human SW620 cells by SRB assay; format: functional
[23] = tested on: SF-268; experiment: Cytotoxicity against human SF268 cells by SRB assay; format: functional
[24] = tested on: SF-295; experiment: Cytotoxicity against human SF295 cells by SRB assay; format: functional
[25] = tested on: SNB-19; experiment: Cytotoxicity against human SNB19 cells by SRB assay; format: functional
[26] = tested on: SNB-75; experiment: Cytotoxicity against human SNB75 cells by SRB assay; format: functional
[27] = tested on: U-251; experiment: Cytotoxicity against human U251 cells by SRB assay; format: functional
[28] = tested on: LOX IMVI; experiment: Cytotoxicity against human LOXIMVI cells by SRB assay; format: functional
[29] = tested on: Malme-3M; experiment: Cytotoxicity against human MALME-3M cells by SRB assay; format: functional
[30] = tested on: M14; experiment: Cytotoxicity against human M14 cells by SRB assay; format: functional
[31] = tested on: SK-MEL-2; experiment: Cytotoxicity against human SK-MEL-2 cells by SRB assay; format: functional
[32] = tested on: SK-MEL-28; experiment: Cytotoxicity against human SK-MEL-28 cells by SRB assay; format: functional
[33] = tested on: SK-MEL-5; experiment: Cytotoxicity against human SK-MEL-5 cells by SRB assay; format: functional
[34] = tested on: UACC-257; experiment: Cytotoxicity against human UACC257 cells by SRB assay; format: functional
[35] = tested on: UACC-62; experiment: Cytotoxicity against human UACC62 cells by SRB assay; format: functional
[36] = tested on: IGROV-1; experiment: Cytotoxicity against human IGROV1 cells by SRB assay; format: functional
[37] = tested on: OVCAR-3; experiment: Cytotoxicity against human OVCAR-3 cells by SRB assay; format: functional
[38] = tested on: OVCAR-4; experiment: Cytotoxicity against human OVCAR4 cells by SRB assay; format: functional
[39] = tested on: OVCAR-5; experiment: Cytotoxicity against human OVCAR5 cells by SRB assay; format: functional
[40] = tested on: OVCAR-8; experiment: Cytotoxicity against human OVCAR8 cells by SRB assay; format: functional
[41] = tested on: SK-OV-3; experiment: Cytotoxicity against human SKOV3 cells by SRB assay; format: functional
[42] = Cytotoxicity against human 786-O cells by SRB assay; format: functional; details: 786-0
[43] = tested on: A498; experiment: Cytotoxicity against human A498 cells by SRB assay; format: functional
[44] = tested on: ACHN; experiment: Cytotoxicity against human ACHN cells by SRB assay; format: functional
[45] = tested on: CAKI-1; experiment: Cytotoxicity against human Caki1 cells by SRB assay; format: functional
[46] = tested on: RXF 393; experiment: Cytotoxicity against human RXF393 cells by SRB assay; format: functional
[47] = tested on: SN12C; experiment: Cytotoxicity against human SN12C cells by SRB assay; format: functional
[48] = tested on: UO-31; experiment: Cytotoxicity against human UO31 cells by SRB assay; format: functional
[49] = tested on: PC-3; experiment: Cytotoxicity against human PC3 cells by SRB assay; format: functional
[50] = tested on: DU-145; experiment: Cytotoxicity against human DU145 cells by SRB assay; format: functional
[51] = tested on: MCF7; experiment: Cytotoxicity against human MCF7 cells by SRB assay; format: functional
[52] = Cytotoxicity against human MCF7/ADR cells by SRB assay; format: functional; details: NCI/ADR-RES
[53] = tested on: MDA-MB-231; experiment: Cytotoxicity against human MDA-MB-231 cells by SRB assay; format: functional
[54] = Cytotoxicity against human Hs 578T cells by SRB assay; format: functional
[55] = tested on: MDA-MB-435; experiment: Cytotoxicity against human MDA-MB-435 cells by SRB assay; format: functional
[56] = tested on: MDA-N; experiment: Cytotoxicity against human MDA-N cells by SRB assay; format: functional
[57] = tested on: BT-549; experiment: Cytotoxicity against human BT549 cells by SRB assay; format: functional
[58] = tested on: T47D; experiment: Cytotoxicity against human T47D cells by SRB assay; format: functional
[59] = tested on: Leukemia cell; experiment: Cytotoxicity against human Leukemia cells by SRB assay; format: functional
[60] = tested on: NSCLC; experiment: Cytotoxicity against human NSCLC cells by SRB assay; format: functional
[61] = Cytotoxicity against human Colon cancer cells by SRB assay; format: functional; details: Cancer cell lines
[62] = Cytotoxicity against human CNS cancer cells by SRB assay; format: functional; details: Cancer cell lines
[63] = Cytotoxicity against human melanoma cells by SRB assay; format: functional; details: Melanoma cell
[64] = Cytotoxicity against human ovarian cancer cells by SRB assay; format: functional; details: Cancer cell lines
[65] = Cytotoxicity against human prostate cancer cells by SRB assay; format: functional; details: Cancer cell lines
[66] = Cytotoxicity against human breast cancer cells by SRB assay; format: functional; details: Cancer cell lines
[67] = Cytotoxicity against human renal cancer cells by SRB assay; format: functional; details: Cancer cell lines

SMILES: C=C1[C@@H](O)C[C@@]23CC[C@@H]4[C@@]5(C)CC[C@@H](OC(C)=O)C(C)(C)[C@@H]5C[C@@H](O[C@@H]5O[C@H](COC(C)=O)[C@@H](O)[C@H](O)[C@H]5O)[C@@]4(C)C2=CC[C@H]3[C@H]1C
- GI50 [1]: 2570 nM
- GI50 [2]: 2750 nM
- GI50 [3]: 3.09 µM
- GI50 [4]: 1950 nM
- GI50 [5]: 2950 nM
- GI50 [6]: 2340 nM
- GI50 [7]: 4.79 µM
- GI50 [8]: 10 µM
- GI50 [9]: 12.9 µM
- GI50 [10]: 10.7 µM
- GI50 [11]: 6.03 µM
- GI50 [12]: 9.55 µM
- GI50 [13]: 12.9 µM
- GI50 [14]: 4.27 µM
- GI50 [15]: 7.41 µM
- GI50 [16]: 1780 nM
- TGI [16]: 3.3 µM
- GI50 [17]: 1580 nM
- TGI [17]: 3.5 µM
- GI50 [18]: 3.47 µM
- TGI [18]: 9.8 µM
- GI50 [19]: 11.5 µM
- TGI [19]: 27.5 µM
- GI50 [20]: 2340 nM
- TGI [20]: 5.9 µM
- GI50 [21]: 1550 nM
- TGI [21]: 4.8 µM
- GI50 [22]: 7.24 µM
- TGI [22]: 24.2 µM
- GI50 [23]: 6.61 µM
- GI50 [24]: 4.17 µM
- GI50 [25]: 5.5 µM
- GI50 [26]: 2190 nM
- GI50 [27]: 2820 nM
- GI50 [28]: 3.98 µM
- GI50 [29]: 11.5 µM
- GI50 [30]: 3.55 µM
- GI50 [31]: 2090 nM
- GI50 [32]: 8.32 µM
- GI50 [33]: 6.03 µM
- GI50 [34]: 10.2 µM
- GI50 [35]: 7.08 µM
- GI50 [36]: 4.79 µM
- GI50 [37]: 2820 nM
- GI50 [38]: 3.98 µM
- GI50 [39]: 2090 nM
- GI50 [40]: 6.61 µM
- GI50 [41]: 11.7 µM
- GI50 [42]: 5.25 µM
- GI50 [43]: 14.8 µM
- GI50 [44]: 7.08 µM
- GI50 [45]: 13.2 µM
- GI50 [46]: 3.98 µM
- GI50 [47]: 6.03 µM
- GI50 [48]: 13.8 µM
- GI50 [49]: 3.47 µM
- GI50 [50]: 10.7 µM
- GI50 [51]: 1510 nM
- GI50 [52]: 17.8 µM
- GI50 [53]: 7.76 µM
- GI50 [54]: 4.9 µM
- GI50 [55]: 4.79 µM
- GI50 [56]: 5.13 µM
- GI50 [57]: 11.5 µM
- GI50 [58]: 7.24 µM
- TGI [59]: 8.7 µM
- TGI [60]: 23.4 µM
- TGI [61]: 11.3 µM
- TGI [62]: 16.9 µM
- TGI [63]: 19.1 µM
- TGI [64]: 17.6 µM
- TGI [65]: 18.3 µM
- TGI [66]: 21.5 µM
- TGI [67]: 22.1 µM
